# Assay results published in patent US7033802B1, “Penicillin binding protein gene and process for producing L-glutamic acid” (Ajinomoto Co., Inc., priority 1998, dated 2006).
# “Also recorded” adds a separate entry of the source.
# Legend:
# PBP3 = experiment: Inhibition by mecillinam of binding of 14C-penicillin G to PBPs in membrane fraction (SDS-PAGE, image analyzer); parameters: species or system Brevibacterium lactofermentum; settings: mecillinam added at various concentrations before the penicillin binding reaction; membrane fraction of ATCC 13869
# Protocol: PBP is considered to be a membrane protein. A membrane fraction of a coryneform bacterium was prepared as follows. A wild strain of coryneform bacteria, Brevibacterium lactofermentum ATCC 13869 strain, was inoculated to 20 ml of A medium (containing 10 g of polypeptone, 5 g of yeast extract, 5 g of NaCl and 5 g of glucose in 1 L of water), cultured at 30° C. with shaking, and harvested when the absorption at 660 nm reached about 1.0. The cells were washed in […] sodium phosphate buffer, pH 7.0. Then, the buffer was added with glass beads and sonicated to disrupt the cells. […] Protein concentration of this membrane fraction was determined by using a protein quantification kit (produced by PIERCE, Micro BCA Protein assay kit), and found to be 4 mg/ml.
# A volume of 30 μl of the prepared membrane fraction was added with 3 μl of ^14C-penicillin G (produced by Amersham) and allowed to react at 30° C. for 10 minutes. […] A sample of this fraction was subjected to SDS-PAGE using gel containing 10% of polyacrylamide, and the gel was fixed, dried and analyzed with an image analyzer BAS2000 produced by Fuji Photo Film Co., Ltd. As a result, three bands were detected at 110 kDa, 100 kDa and 60 kDa, and designated as PBP1, PBP2 and PBP3, respectively. […]
# [1] = system: Brevibacterium lactofermentum ATCC 13869; experiment: Glutamic acid production by coryneform bacterium induced by addition of mecillinam; format: cell-based; settings: A medium, 30° C., added after 2 hours, further cultured 8 hours
# Protocol: The Brevibacterium lactofermentum ATCC 13869 strain was inoculated to the aforementioned A medium, cultured at 30° C. for 2 hours with shaking, then added with 0.01 μM to 100 μM of mecillinam, and further cultured for 8 hours with shaking. Subsequently, glutamic acid concentration in the medium was measured by using Biotech Analyzer AS210 (produced by Asahi Chemical Industry Co., Ltd.) (Table 1).
compound,measurement,setting,value
CC1(C)S[C@@H]2[C@H](/N=C/N3CCCCCC3)C(=O)N2[C@H]1C(=O)O [mecillinam],"inhibition of binding of PBP with isotope (14C) labeled penicillin G / selectivity among PBP1, PBP2, PBP3",PBP3,only PBP3 was inhibited; also recorded: selectively binds to PBP3
same,Concentration of L-glutamic acid,[1]; 0.1 μM added mecillinam,0 mg/L
same,Concentration of L-glutamic acid,[1]; 1.0 μM added mecillinam,0 mg/L
same,Concentration of L-glutamic acid,[1]; 10 μM added mecillinam,0 mg/L
same,Concentration of L-glutamic acid,[1]; 100 μM added mecillinam,575 mg/L
